Test results from patent US7067531B2, “Farnesyl transferase inhibiting 6-heterocyclylmethyl quinolinone derivatives” (priority 2000, dated 2006).

melting point [°C] | SMILES
149 | O=C(O)C(=O)O.O=c1[nH]c2ccc(C(c3nc(-c4ccccc4)cs3)n3ccnc3-c3ccccc3)cc2c(-c2cccc(Cl)c2)c1CO (centres unmarked)
248 | Cn1cncc1C(O)(c1ccoc1)c1ccc2c(c1)c(-c1cccc(Cl)c1)cc(=O)n2C (racemic) [Example B6, (±)-4-(3-chlorophenyl)-6-[3-furanylhydroxy(1-methyl-1H-imidazol-5-yl)methyl]-1-methyl-2(1H)-quinolinone]
197 | Cn1cncc1C(N)(c1ccoc1)c1ccc2c(c1)c(-c1cccc(Cl)c1)cc(=O)n2C (racemic) [Example B8, (±)-6-[amino-3-furanyl(1-methyl-1H-imidazol-5-yl)methyl]-4-(3-chlorophenyl)-1-methyl-2(1H)-quinolinone]
246 | Cn1cncc1C(O)(c1ccc2c(c1)c(-c1cccc(Cl)c1)cc(=O)n2C)c1nccs1 (racemic) [Example B3 F2, (±)-4-(3-chlorophenyl)-6-[hydroxy(1-methyl-1H-imidazol-5-yl)-2-thiazolylmethyl]-1-methyl-2(1H)-quinolinone]
130 | Cn1cncc1C(O)(c1ccc2c(c1)c(-c1cccc(Cl)c1)cc(=O)n2C)c1nccn1C (centres unmarked) [Example B7, 4-(3-chlorophenyl)-6-[hydroxy(1-methyl-1H-imidazol-2-yl)(1-methyl-1H-imidazol-5-yl)methyl]-1-methyl-2(1H)-quinolinone]
